The text below walks through data of patent publication US10370436B2, “Anti-pseudomonas Psl binding molecules and uses thereof” (priority 2011, dated 2019).

In test [1] the test system is Psl (enriched carbohydrate purified from PAO1ΔwbpL/algD/pelA). The test is described as follows: Psl capture binding assay (FORTEBIO OCTET 384). Also on record: species or system Pseudomonas aeruginosa. The note with it: FIG. 3K. As to the method: To confirm that all of the antibodies bound to the same antigen, a Psl capture binding assay was performed using a FORTEBIO® OCTET® 384 instrument as described above. The antigen was proteinase K-treated enriched carbohydrate purified from PAO1ΔwbpL/algD/pelA (O-antigen-, alginate- and Pel exopolysaccharide-deficient). Individual antibodies were bound to aminopropylsilane biosensors followed by blocking and the addition of the enriched carbohydrate antigen. After washing to remove unbound antigen, binding of unlabelled mAbs to captured antigen was assessed.
(Biolayer interferometry detects binding as a change in optical thickness at a sensor tip.)

Test [2] deals with luminescent P. aeruginosa serogroup 05 strain (PAO1.lux). In words: Opsonophagocytosis killing (OPK) assay, PAO1.lux. The class given is cell-based, Pseudomonas aeruginosa. As to the method:
This example describes the evaluation of prioritized human IgG1 antibodies to promote OPK of P. aeruginosa. […] OPK assays were performed as described in (DiGiandomenico, A., et al., Infect Immun 72, 7012-7021 (2004)), with modifications. Briefly, assays were performed in 96-well plates using 0.025 ml of each OPK component; P. aeruginosa strains; diluted baby rabbit serum; differentiated HL-60 cells; and monoclonal antibody. In some OPK assays, luminescent P. aeruginosa strains, which were constructed as described (Choi, K. H., et al., Nat Methods 2, 443-448 (2005)), were used. Luminescent OPK assays were performed as described above but with determination of relative luciferase units (RLUs) using a Perkin Elmer ENVISION Multilabel plate reader (Perkin Elmer).
This example describes two series of experiments evaluating the ability of PMB-mAb conjugates to promote OPK of P. aeruginosa. In the first experiments (FIGS. 15A-B), conjugate-mediated OPK activity by human HL-60 neutrophil cell line in the presence of rabbit complement was evaluated using P. aeruginosa strains expressing bacterial luciferase as described in Example 2. R347 was used as a negative control in these experiments. […] In the second series of experiments, reduction in luminescence following 2 h incubation relative to control lacking mAb was used to determine % killing.

Test [3] relates to P. aeruginosa PAO1 and isogenic mutants. The test is described as follows: Indirect ELISA on plates coated with P. aeruginosa strains. The class given is binding, Pseudomonas aeruginosa. The source says: In addition, duplication of VH CDR3 loop sequences in the libraries (a measure of clonal enrichment during selection), was also found to be higher in the patient library, reaching 88-92%, compared to 15-25% in the naïve library at round 3 (FIG. 1D). Individual scFv phage from affinity selections were next screened by ELISA for reactivity to P. aeruginosa heterologous serotype strains (FIG. 1E). ELISA plates (Nunc; MAXISORP™) were coated with P. aeruginosa strains from overnight cultures as described (DiGiandomenico, A., et al., Infect Immun 72, 7012-7021 (2004)). Diluted antibodies were added to blocked plates for 1 hour, washed, and treated with HRP-conjugated anti-human secondary antibodies for 1 hour followed by development and analysis as described (Ulbrandt, N. D., et al., J Virol 80, 7799-7806 (2006)). The dominant species of phage obtained from whole cell selections with both libraries yielded serotype specific reactivity (data not shown).
This example describes identification of the target of anti-P. aeruginosa antibodies derived from phenotypic screening. Target analysis was performed to test whether the serotype independent antibodies targeted protein or carbohydrate antigens. […] Isogenic mutants were constructed in genes responsible for O-antigen, alginate, and LPS core biosynthesis; wbpL (O-antigen-deficient); wbpL/algD (O-antigen and alginate deficient); rmlC (O-antigen-deficient and truncated outer core); and galU (O-antigen-deficient and truncated inner core). P. aeruginosa mutants were constructed based on the allele replacement strategy described by Schweizer (Schweizer, H. P., Mol Microbiol 6, 1195-1204 (1992); Schweizer, H. D., Biotechniques 15, 831-834 (1993)). Vectors were mobilized from E. coli strain 517.1 into P. aeruginosa strain PAO1; recombinants were isolated as described (Hoang, T. T., et al., Gene 212, 77-86 (1998)). Gene deletion was confirmed by PCR. P. aeruginosa mutants were complemented with pUCP30T-based constructs harboring wild type genes. […] The rmlC and galU genes were recently shown to be required for biosynthesis of the Psl exopolysaccharide, a repeating pentasaccharide polymer consisting of D-mannose, L-rhamnose, and D-glucose. Cam-003 binding to an isogenic pslA knockout PAO1ΔpslA, was tested, as pslA is required for Psl biosynthesis (Byrd, M. S., et al., Mol Microbiol 73, 622-638 (2009)). Binding of Cam-003 to PAO1ΔpslA was abolished when tested by ELISA (FIG. 3B) and FACS (FIG. 3C), while the LPS molecule in this mutant was unaffected (FIG. 3D). Binding of Cam-003 was restored in a PAO1ΔwbpL/algD/pslA triple mutant complemented with pslA (FIG. 3E) as was the ability of Cam-003 to mediate opsonic killing to complemented PAO1ΔpslA in contrast to the mutant (FIGS. 3F and 3G). Binding of Cam-003 antibody to a Pcl exopolysaccharide mutant was also unaffected further confirming Psl as our antibody target (FIG. 3E). Binding assays confirmed that the remaining antibodies also bound Psl (FIGS. 3H and 3I).
(In an ELISA, binding on a coated surface is turned into a signal by an enzyme label.)

As for “Cam-003: human IgG1 anti-Psl monoclonal antibody, VH SEQ ID NO: 1 and VL SEQ ID NO: 2”, the “reactivity of unlabelled mAb to captured Psl” value in test [1] is “reacted”. In addition, in test [1] (antibody bound to aminopropylsilane biosensors), the “capture of Psl antigen by biosensor-bound antibody” value is “capable of capturing antigen”. This substance returned an OPK EC50 in test [2] (FIG. 9A) of 0.06 µg/mL. For the same substance, the “OPK activity (concentration dependent killing)” value in test [2] (human IgG1 antibodies, differentiated HL-60 cells, baby rabbit serum, FIG. 2A) is given as “superior OPK activity”. For the same substance, the “reactivity to purified LPS” value in test [3] (LPS purified from PAO1) is recorded as “not observed”. Further, the ELISA binding result is on record as “abolished” in test [3] (PAO1ΔpslA, FIG. 3B); “restored” in test [3] (PAO1ΔwbpL/algD/pslA triple mutant complemented with pslA, FIG. 3E); “unaffected” in test [3] (Pcl exopolysaccharide mutant, FIG. 3E); “abolished” in test [3] (rmlC and galU mutants, FIGS. 3A, 3J); “unaffected” in test [3] (wbpL or wbpL/algD double mutant, FIGS. 3A, 3J).
